Consider 24 molecules from US8895585B2, “Nicotinamide derivative or salt thereof” (FUJIFILM Corporation, priority 2010, dated 2014).

Several values for one entry are separate records, joined by “and”; a condition that tells them apart may be missing. Identical values can stand only once. Like-named read-outs stand apart in the source and are kept apart here.

One assay relates to THP-1 cells. Nature of the assay: TNFα generation assay. Format: cell-based, human. The following applies: Homo sapiens. In outline:
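THP-1 cells differentiated to macrophage-like cells with 10 ng/ml IFN-γ for 2 days, preincubated with compound 30 min at room temperature, then cultured 7 h on plates coated with human IgG (10 μg/ml). Secreted TNFα measured by ELISA or AlphaLISA.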

Assay [1] deals with T1, glutathione S-transferase (GST)-fused full-length human Syk protein (Homo sapiens, UniProt P43405).
T1 construct: (GST)-fused full-length human Syk protein; GST (glutathione S-transferase); purchased Carna Biosciences
As to the kind of experiment: Syk enzyme assay. Format: biochemical. In outline:
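GST-tagged full-length human Syk (baculovirus) preincubated with compound 15 min at room temperature (pH 7.0, 10 mM MgCl2), then reacted 40 min with 0.4 μM biotinylated peptide substrate and 27 μM ATP (final). Phosphorylation read by HTRF (615/665 nm) after EDTA stop; IC50 reported.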

Where [2] appears, read: THP-1, THP-1 cells, Table 22, read-out: IC50 in TNFα generation assay.
[3] abbreviates: Syk enzyme assay, Test Example 1, read-out: IC50 of Syk-inhibitory activity.

Take `C[C@H](N)[C@@H](C)Nc1nc(Nc2cccc(-n3ccnn3)c2)c(C(N)=O)cc1F` (racemic) [Example 006-121, 2-((3-(1H-1,2,3-triazol-1-yl)phenyl)amino)-6-(((2R,3S)-3-aminobutan-2-yl)amino)-5-fluoronicotinamide 2-((3-(1H-1,2,3-triazol-1-yl)phenyl)amino)-6-(((2S,3R)-3-aminobutan-2-yl)amino)-5-fluoronicotinamide]: the IC50 in the assay on THP-1 cells (setting [2]) is 130 to 200 nM; in assay [1] (setting [3]) it was less than 10 nM.
In the case of `CC[C@@H](Nc1nc(Nc2ccnc(-c3ccc(OC)cc3F)c2)c(C(N)=O)cc1F)[C@H](C)N` [Example 006-332, 6-(((2S,3R)-2-aminopentan-3-yl)amino)-5-fluoro-2-((2-(2-fluoro-4-methoxyphenyl)pyridin-4-yl)amino)nicotinamide], the values for the IC50 (with THP-1 cells (setting [2]); in assay [1] (setting [3])) were less than 65 nM and less than 10 nM, respectively.
For `CC(C)C[C@H](CN)Nc1nc(Nc2ccc3cccnc3c2)c(C(N)=O)cc1F` [Example 006-228, (R)-6-((1-amino-4-methylpentan-2-yl)amino)-5-fluoro-2-((quinolin-7-yl)amino)nicotinamide] the same measures were 130 to 200 nM and less than 10 nM.
For `CC[C@@H](Nc1nc(Nc2cncc(-n3cccn3)c2)c(C(N)=O)cc1F)[C@H](C)N` [Example 006-218, 2-((5-(1H-pyrazol-1-yl)pyridin-3-yl)amino)-6-(((2S,3R)-2-aminopentan-3-yl)amino)-5-fluoronicotinamide] the same measures were 65 to 130 nM and less than 10 nM.
On the same counts, the results for `CCC[C@@H](Nc1nc(Nc2cncc(Cl)c2)c(C(N)=O)cc1F)[C@H](C)N` [Example 006-297, 6-(((2S,3R)-2-aminohexan-3-yl)amino)-2-((5-chloropyridin-3-yl)amino)-5-fluoronicotinamide] are 65 to 130 nM and less than 10 nM.
As for `CCOc1ncc(Nc2nc(N[C@@H]3CCCC[C@@H]3N)c(F)cc2C(N)=O)cc1-n1cccn1` [Example 006-494, 6-(((1R,2S)-2-aminocyclohexyl)amino)-2-((6-ethoxy-5-(1H-pyrazol-1-yl)pyridin-3-yl)amino)-5-fluoronicotinamide], the results for the IC50 (in the assay on THP-1 cells (setting [2]); in assay [1] (setting [3])) were 130 to 200 nM and 10 to 50 nM, respectively.
Turning to `NC(=O)c1cc(F)c(N[C@@H]2CCCC[C@@H]2N)nc1Nc1cnc2c(c1)OCO2` [Example 004-160], the IC50 in the assay with THP-1 cells (setting [2]) was 130 to 200 nM; in assay [1] (setting [3]) it was 10 to 50 nM.
On the same counts, the results for `COc1cc(Nc2nc(NCCN)c(F)cc2C(N)=O)cc(OC)c1` [Example 008-001] are 65 to 130 nM and 10 to 50 nM.
For `NC(=O)c1cc(F)c(N[C@@H]2CCCC[C@@H]2N)nc1Nc1cncc(-c2ccc[nH]2)c1` (relative stereo) [Example 004-053] the same measures were 65 to 130 nM and less than 10 nM.
As to `NC(=O)c1cc(F)c(NC2CCCCC2N)nc1Nc1cnnc(-c2ccccc2)c1` (stereo not drawn) [Example 002-169], the IC50 in the assay on THP-1 cells (setting [2]) fell in the range of 130 to 200 nM; in assay [1] (setting [3]), 10 to 50 nM.
On the same counts, the results for `C[C@H](N)[C@H](Nc1nc(Nc2ccc(N3CCOCC3)nc2)c(C(N)=O)cc1F)C1CC1` [Example 006-515, 6-(((1R,2S)-2-amino-1-cyclopropylpropyl)amino)-5-fluoro-2-((6-morpholinopyridin-3-yl)amino)nicotinamide] are 130 to 200 nM and less than 10 nM.
Consider `Cc1nc2ccc(Nc3nc(N[C@H](C)[C@H](C)N)c(F)cc3C(N)=O)cc2nc1C` (racemic) [Example 006-185, 6-(((2R,3S)-3-aminobutan-2-yl)amino)-2-((2,3-dimethylquinoxalin-6-yl)amino)-5-fluoronicotinamide 6-(((2S,3R)-3-aminobutan-2-yl)amino)-2-((2,3-dimethylquinoxalin-6-yl)amino)-5-fluoronicotinamide], for which the figures for the IC50 (in the assay with THP-1 cells (setting [2]); in assay [1] (setting [3])) were 65 to 130 nM and 10 to 50 nM, respectively.
On the same counts, the results for `NC(=O)c1cc(F)c(N[C@@H]2CCCC[C@@H]2N)nc1Nc1ccnc(-n2ccnc2)c1` (relative stereo) [Example 006-128, 2-((2-(1-imidazol-1-yl)pyridin-4-yl)amino)-6-((cis-2-aminocyclohexyl)amino)-5-fluoronicotinamide] are 130 to 200 nM and 10 to 50 nM.
For `CCCC[C@@H](Nc1nc(Nc2ccc3ncccc3c2)c(C(N)=O)cc1F)[C@H](C)N` [Example 006-208, 6-(((2S,3R)-2-aminoheptan-3-yl)amino)-5-fluoro-2-((quinolin-6-yl)amino)nicotinamide] the same measures were 65 to 130 nM and less than 10 nM.
Regarding `Cn1c(=O)ccc2cc(Nc3nc(NC4CCCCC4N)c(F)cc3C(N)=O)cnc21` (stereo not drawn) [Example 002-115], the IC50 with THP-1 cells (setting [2]) was 130 to 200 nM; in assay [1] (setting [3]) it was 10 to 50 nM.
On the same counts, the results for `C[C@H](N)[C@@H](CC1CC1)Nc1nc(Nc2cncc(-n3nccn3)c2)c(C(N)=O)cc1F` [Example 006-352, 2-((5-(2H-1,2,3-triazol-2-yl)pyridin-3-yl)amino)-6-(((2R,3S)-3-amino-1-cyclopropylbutan-2-yl)amino)-5-fluoronicotinamide] are less than 65 nM and less than 10 nM.
In the case of `C[C@H](N)CNc1nc(Nc2ccc3ncccc3c2)c(C(N)=O)cc1F` [Example 13, 6-((2S)-2-aminopropylamino)-5-fluoro-2-(quinolin-6-ylamino)nicotinamide], the IC50 in the assay on THP-1 cells (THP-1, 7 h, IFN-γ-differentiated THP-1 cells on human IgG-coated plate, cultured 7 hours, read-out: TNFα generation inhibitory activity (IC50)) was no more than 200 nM; in assay [1] (read-out: Syk-inhibitory activity (IC50)), no more than 1000 nM.
With `Cc1cc(C)cc(Nc2nc(NCCN)c(Br)cc2C(N)=O)c1` [Example 035-009], the IC50 with THP-1 cells (setting [2]) was 130 to 200 nM; in assay [1] (setting [3]), < 10 nM and 10 to 50 nM.
On to `CC[C@H](N)[C@@H](C)Nc1nc(Nc2ccc3ncccc3c2)c(C(N)=O)cc1F` [Example 006-198, 6-(((2R,3S)-3-aminopentan-2-yl)amino)-5-fluoro-2-((quinolin-6-yl)amino)nicotinamide], for which the IC50 with THP-1 cells (setting [2]) is 65 to 130 nM; in assay [1] (setting [3]) it was less than 10 nM.
For `CCC[C@@H](Nc1nc(Nc2cncc(-c3ccc(OC)cc3F)c2)c(C(N)=O)cc1F)[C@H](C)N` [Example 006-287, 6-(((2S,3R)-2-aminohexan-3-yl)amino)-5-fluoro-2-((5-(2-fluoro-4-methoxyphenyl)pyridin-3-yl)amino)nicotinamide] the same measures were 65 to 130 nM and less than 10 nM.
On the same counts, the results for `COc1cc(Nc2nc(N[C@H](CC3CC3)[C@H](C)N)c(F)cc2C(N)=O)ccn1` [Example 006-355, 6-(((2R,3S)-3-amino-1-cyclopropylbutan-2-yl)amino)-5-fluoro-2-((2-methoxypyridin-4-yl)amino)nicotinamide] are 65 to 130 nM and less than 10 nM.
On the same counts, the results for `Cc1ncc(Nc2nc(NC3CCCCC3N)c(F)cc2C(N)=O)cc1-c1ccoc1` (stereo not drawn) [Example 002-117] are 65 to 130 nM and less than 10 nM.
In the case of `C[C@H](N)[C@@H](CC1CC1)Nc1nc(Nc2cncc(F)c2)c(C(N)=O)cc1F` [Example 006-357, 6-(((2R,3S)-3-amino-1-cyclopropylbutan-2-yl)amino)-5-fluoro-2-((5-fluoropyridin-3-yl)amino)nicotinamide], the IC50 is 65 to 130 nM in the assay on THP-1 cells (setting [2]) and 10 to 50 nM in assay [1] (setting [3]).
On the same counts, the results for `COCCn1ncc2ccc(Nc3nc(NC4CCCCC4N)c(F)cc3C(N)=O)cc21` (stereo not drawn) [Example 002-048] are 130 to 200 nM and less than 10 nM.
